From US12528812B2 (Genentech, Inc., priority 2020, dated 2026)
Like-named read-outs stand apart in the source and are kept apart here.

Key:
[1] = molecular target: T1, recombinant human JAK1 kinase domain protein (Residues 854-1154) (Homo sapiens, UniProt P23458); test: JAK1 biochemical assay (LabChip mobility shift, Ki); settings: read-out: Biochem JAK1 Ki
T1 construct: human JAK1 kinase domain protein (Residues 854-1154); purchased Proteros Biostructures GmbH (Martinsried, Germany); host or cells: insect cells

[2] = tested on: IL-13-stimulated STAT6 phosphorylation in human lung bronchial epithelial BEAS-2B cell line; test: P-STAT6 BEAS-2B + IL-13 cell assay; format: cell-based; settings: BEAS2B cells, IL13 stimulation, read-out: Cellular JAK1 PSTAT6 BEAS2B + IL13
Procedure: In order to study the effect of JAK1 inhibitors in a cell line that is relevant to the cell biology of human asthma, an IL-13-stimulated STAT6 phosphorylation assay in the human lung bronchial epithelial BEAS-2B cell line was developed.
BEAS-2B cells (ATCC′ CRL-9609™) were grown in Bronchial Epithelial Growth Medium (BEGM) (Lonza Catalog No. CC-3170; Walkersville, MD; or PromoCell Catalog No. C-21060; Heidelberg, Germany). Test compound stock solutions (0.5 mM in DMSO) were serially diluted 1:2 in DMSO to generate a 10-point concentration curve (at 500× test concentration), which was further diluted by a 50-fold dilution step in BEGM to generate a 10× concentration curve (in 2% DMSO). Cells were plated at 100,000 cells/well in 200 μL of BEGM in 96-well plates and incubated for 48 hours at 37° C. in a humidified incubator. Medium was aspirated from the cells and replaced with 70 μL of fresh BEGM. Diluted test compound (10 μL; or 2% DMSO in assay medium) was added to the cells, and the plates were incubated for 1 hour at 37° C. in a humidified incubator. Twenty μL of 250 ng/mL human recombinant IL-13 (Bio Techne Catalog No. 213-ILB) was then added to the cells and incubated for 15 minutes at 37° C. Medium was aspirated from the cells and 60 μL of ice-cold 1× cell lysis buffer (Cell Signaling Technologies; Catalog No. 9803S) containing 1 mM PMSF was added to the cells. Assay plates were incubated at −80° C. for at least 1 hour. P-STAT6 was measured by coating GAR plates (MSD; Catalog No. L45RA-1) with rabbit anti-human total STAT6 antibody (Cell Signaling Technologies; Catalog No. 9362S), incubating the cell lysates in the coated plates overnight at 4° C., and then detecting with mouse anti-phospho-STAT6 (Tyr641) Clone 16E12 antibody (Millipore; Catalog No. 05-590, custom labeled by MSD with SULFO-tag) using standard MSD plate processing, washing, and detection protocols. Plates were read on the MESO SECTOR 5600.
Data analysis was performed by subtracting negative control values from all wells and determining percent of control using the positive control values; the IC50 was determined with a four-parameter logistic fit model as shown in Equation 4.

[3] = molecular target: Recombinant human JAK2 kinase domain protein (Residues 812-1132) (Homo sapiens, UniProt O60674); test: JAK2 biochemical assay (LabChip mobility shift, Ki); settings: Biochem JAK2 Ki
Sequence of Recombinant human JAK2 kinase domain protein (Residues 812-1132) (O60674 812-1132): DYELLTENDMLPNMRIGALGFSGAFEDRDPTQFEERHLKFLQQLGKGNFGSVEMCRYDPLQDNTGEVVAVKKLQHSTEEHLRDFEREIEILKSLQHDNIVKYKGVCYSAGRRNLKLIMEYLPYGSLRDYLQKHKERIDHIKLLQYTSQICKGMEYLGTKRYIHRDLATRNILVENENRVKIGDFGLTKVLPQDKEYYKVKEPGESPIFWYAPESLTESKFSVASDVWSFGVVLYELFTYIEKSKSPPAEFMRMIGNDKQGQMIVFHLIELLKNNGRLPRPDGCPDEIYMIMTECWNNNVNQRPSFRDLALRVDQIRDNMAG

T1 sequence (P23458 854-1154): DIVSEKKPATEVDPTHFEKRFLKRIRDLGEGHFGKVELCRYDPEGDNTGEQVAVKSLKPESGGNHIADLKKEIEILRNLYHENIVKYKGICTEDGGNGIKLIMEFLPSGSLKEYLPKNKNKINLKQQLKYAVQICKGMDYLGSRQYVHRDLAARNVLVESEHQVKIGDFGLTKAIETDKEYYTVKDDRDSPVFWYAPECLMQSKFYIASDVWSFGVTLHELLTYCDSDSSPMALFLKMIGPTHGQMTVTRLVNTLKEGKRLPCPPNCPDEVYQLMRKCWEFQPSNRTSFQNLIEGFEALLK

Row | SMILES | Ki [1] | IC50 ([2]; Homo sapiens, BEAS-2B) | Ki [3] | IC50 [2]
1 | Cc1cc(Oc2ccc(OC(F)F)c(-c3nn(C)cc3NC(=O)c3cnn4cccnc34)c2)ccc1C(=O)N1CCN(C)CC1 [Example 85, N-[3-[2-(difluoromethoxy)-5-[3-methyl-4-(4-methylpiperazine-1-carbonyl)phenoxy]phenyl]-1-methyl-pyrazol-4-yl]pyrazolo[1,5-a]pyrimidine-3-carboxamide] | 1.3 nM | 110 nM | 0.4 nM | –
2 | Cn1cc(NC(=O)c2cnn3cccnc23)c(-c2cc(Oc3cccc(C(=O)N4CCNCC4)c3)ccc2OC(F)F)n1 [Example 80, N-[3-[2-(difluoromethoxy)-5-[3-(piperazine-1-carbonyl)phenoxy]phenyl]-1-methyl-pyrazol-4-yl]pyrazolo[1,5-a]pyrimidine-3-carboxamide] | 0.35 nM | 61 nM | 0.35 nM | –
3 | Cn1cc(NC(=O)c2cnn3cccnc23)c(-c2cc(Oc3cccc([C@H]4COCCN4)c3)ccc2OC(F)F)n1 (stereo in doubt) [Example 33, N-[3-[2-(difluoromethoxy)-5-[3-[rac-(3S)-morpholin-3-yl]phenoxy]phenyl]-1-methyl-pyrazol-4-yl]pyrazolo[1,5-a]pyrimidine-3-carboxamide] | 0.95 nM | 62 nM | 0.43 nM | –
4 | CN1CC[C@@H](O)[C@H](n2cc(Oc3ccc(OC(F)F)c(-c4nn(C)cc4NC(=O)c4cnn5cccnc45)c3)cn2)C1 (stereo in doubt) [Example 185, N-[3-[2-(difluoromethoxy)-5-[1-[rac-(3R,4R)-4-hydroxy-l-methyl-3-piperidyl]pyrazol-4-yl]oxy-phenyl]-1-methyl-pyrazol-4-yl]pyrazolo[1,5-a]pyrimidine-3-carboxamide] | 0.33 nM | 62 nM | 0.21 nM | –
5 | Cn1cc(NC(=O)c2cnn3cccnc23)c(-c2cc(Oc3cccc(C4CNC4)c3)ccc2OC(F)F)n1 [Example 87, N-[3-[5-[3-(azetidin-3-yl)phenoxy]-2-(difluoromethoxy)phenyl]-1-methyl-pyrazol-4-yl]pyrazolo[1,5-a]pyrimidine-3-carboxamide] | 0.26 nM | 36 nM | 0.41 nM | –
6 | Cc1cc(Oc2ccc(OC(F)F)c(-c3nn(C)cc3NC(=O)c3cnn4cccnc34)c2)ccc1C(=O)N(C)C [Example 74, N-[3-[2-(difluoromethoxy)-5-[4-(dimethylcarbamoyl)-3-methyl-phenoxy]phenyl]-1-methyl-pyrazol-4-yl]pyrazolo[1,5-a]pyrimidine-3-carboxamide] | 0.61 nM | 30 nM | 0.26 nM | –
7 | Cn1cc(NC(=O)c2cnn3cccnc23)c(-c2cc(Oc3cccc(CNCCO)c3)ccc2OC(F)F)n1 [Example 23, N-[3-[2-(difluoromethoxy)-5-[3-[(2-hydroxyethylamino)methyl]phenoxy]phenyl]-1-methyl-pyrazol-4-yl]pyrazolo[1,5-a]pyrimidine-3-carboxamide] | 0.37 nM | 24 nM | 0.35 nM | –
8 | Cn1cc(NC(=O)c2cnn3cccnc23)c(-c2cc(Oc3ccc(CN4CCC4CO)cc3)ccc2OC(F)F)n1 (racemic) [Example 169, N-[3-[2-(difluoromethoxy)-5-[4-[[rac-(2R)-2-(hydroxymethyl)azetidin-1-yl]methyl]phenoxy]phenyl]-1-methyl-pyrazol-4-yl]pyrazolo[1,5-a]pyrimidine-3-carboxamide] | 1.2 nM | – | 0.68 nM | 29 nM
9 | Cn1cc(NC(=O)c2cnn3cccnc23)c(-c2cc(Oc3ccc(CN)cc3)ccc2OC(F)F)n1 [Example 20, N-[3-[5-[4-(aminomethyl)phenoxy]-2-(difluoromethoxy)phenyl]-1-methyl-pyrazol-4-yl]pyrazolo[1,5-a]pyrimidine-3-carboxamide] | 1.5 nM | 19 nM | 0.59 nM | –
10 | CN1CCN(C(=O)c2cccc(Oc3ccc(OC(F)F)c(-c4nn(C)cc4NC(=O)c4cnn5cccnc45)c3)c2)CC1 [Example 84, N-[3-[2-(difluoromethoxy)-5-[3-(4-methylpiperazine-1-carbonyl)phenoxy]phenyl]-1-methyl-pyrazol-4-yl]pyrazolo[1,5-a]pyrimidine-3-carboxamide] | 0.48 nM | 74 nM | 0.47 nM | –
11 | CN(C)C1CCN(C(=O)c2cccc(Oc3ccc(OC(F)F)c(-c4nn(C)cc4NC(=O)c4cnn5cccnc45)c3)c2)C1 (racemic) [Example 211, N-[3-[2-(difluoromethoxy)-5-[3-[rac-(3S)-3-(dimethylamino)pyrrolidine-1-carbonyl]phenoxy]phenyl]-1-methyl-pyrazol-4-yl]pyrazolo[1,5-a]pyrimidine-3-carboxamide] | 0.98 nM | 54 nM | 0.58 nM | –
12 | Cc1ccc(Oc2ccc(OC(F)F)c(-c3n[nH]cc3NC(=O)c3cnn4cccnc34)c2)cc1 [Example 25, N-[3-[2-(difluoromethoxy)-5-(4-methylphenoxy)phenyl]-1H-pyrazol-4-yl]pyrazolo[1,5-a]pyrimidine-3-carboxamide] | 0.39 nM | 11 nM | 0.14 nM | –
13 | CNC(=O)c1cncc(Oc2ccc(OC(F)F)c(-c3nn(C)cc3NC(=O)c3cnn4cccnc34)c2)c1 [Example 158, N-[3-[2-(difluoromethoxy)-5-[[5-(methylcarbamoyl)-3-pyridyl]oxy]phenyl]-1-methyl-pyrazol-4-yl]pyrazolo[1,5-a]pyrimidine-3-carboxamide] | 0.62 nM | 37 nM | – | –
14 | O=C(Nc1c[nH]nc1-c1cc(Oc2ccccc2)ccc1OC(F)F)c1cnn2cccnc12 [Example 1, N-[3-[2-(difluoromethoxy)-5-phenoxy-phenyl]-1H-pyrazol-4-yl]pyrazolo[1,5-a]pyrimidine-3-carboxamide] | 0.18 nM | – | 0.096 nM | –
15 | Cn1cc(NC(=O)c2cnn3cccnc23)c(-c2cc(Oc3cnn(CCN4CCOCC4)c3)ccc2OC(F)F)n1 [Example 68, N-[3-[2-(difluoromethoxy)-5-[1-(2-morpholinoethyl)pyrazol-4-yl]oxy-phenyl]-1-methyl-pyrazol-4-yl]pyrazolo[1,5-a]pyrimidine-3-carboxamide] | 6.2 nM | – | 2.9 nM | –
16 | Cn1cc(NC(=O)c2cnn3cccnc23)c(-c2cc(Oc3cnn(CCBr)c3)ccc2OC(F)F)n1 [Example 214, N-[3-[5-[1-(2-bromoethyl)pyrazol-4-yl]oxy-2-(difluoromethoxy)phenyl]-1-methyl-pyrazol-4-yl]pyrazolo[1,5-a]pyrimidine-3-carboxamide] | 1.1 nM | – | 0.68 nM | –
17 | Cn1cc(NC(=O)c2cnn3cccnc23)c(-c2cc(Oc3cnn(CCC4CO4)c3)ccc2OC(F)F)n1 (stereo not drawn) [Example 215, N-[3-[2-(difluoromethoxy)-5-[1-[2-(oxiran-2-yl)ethyl]pyrazol-4-yl]oxy-phenyl]-1-methyl-pyrazol-4-yl]pyrazolo[1,5-a]pyrimidine-3-carboxamide] | 1.9 nM | – | 1.1 nM | –
18 | CCCN(CCCO)Cc1ccc(Oc2ccc(OC(F)F)c(-c3nn(C)cc3NC(=O)c3cnn4cccnc34)c2)cc1 [Example 161, N-(3-(2-(difluoromethoxy)-5-(4-(((3-hydroxypropyl) (propyl)amino)methyl)phenoxy)phenyl)-1-methyl-1H-pyrazol-4-yl)pyrazolo[1,5-a]pyrimidine-3-carboxamide] | 6 nM | – | 2.2 nM | –
